Laboratory results reported in patent publication US8293374B2, “Test system for evaluating the compatibility of biologically active substances with copolymers” (Abbott GmbH & Co. KG, priority 2002, dated 2012).

Legend:
[1] = Thermodynamic saturation solubility in test solvent, HPLC of clear supernatant after stirring 24 hours (method b); assay type: physicochemical
Procedure: Quantitative determination of the solubility is possible for example in the following way: • a) A concentration series is prepared by bringing various amounts of biologically active substance into contact with a constant amount of test solvent in parallel tests. After an equilibration time over a defined period at a given temperature, preferably with blending, e.g. stirring for 24 hours or ultrasound treatment for 30 min, the maximum concentration at which clear solutions are obtained is found. The solubility of the biologically active substance is between the concentration at which a clear solution is obtained but at the next concentration no clear solution is obtained. • b) An amount of the test solvent which is insufficient for completely dissolving is added to an amount of the biologically active substance, or further amounts of biologically active substance are added to the solution until the added amount no longer completely dissolves. After an equilibration time over a defined period at a given temperature, preferably with blending, e.g. stirring for 24 hours or ultrasound treatment for 30 min, a sample of the clear supernatant is taken. The mixture can for this purpose be previously centrifuged, e.g. using an ultracentrifuge at 8000 to 12 000 rpm. The concentration of the biologically active substance is determined in the sample of the clear supernatant, e.g. by high pressure liquid chromatography (HPLC). The value which is found corresponds to the solubility of the biologically active substance.
(§1) The copolymer was simulated by a mixture of 1,3-bis-(pyrrolidon-1-yl)butane and 1,4-diacetoxybutane in the ratio of 6:4 by weight.
In an alternative determination method, 150 mg of lopinavir were mixed with 350 mg of the test solvent and stirred at room temperature for 24 hours. The sample was then centrifuged at 12 000 rpm for one minute. The clear supernatant was investigated by HPLC.
Example 1b) was repeated but with the test solvent containing 5% by weight Cremophor RH 40.
Example 1b) was repeated with the abovementioned active ingredient premix. 21.3% by weight lopinavir was found in the clear supernatant by HPLC.
Example 3a) was repeated, using the concentrations indicated in the table below, and with the test solvent containing 10% by weight Cremophor RH 40. […] The HPLC method led to a result of 21.7% for lopinavir.

[2] = Maximum solubility in test solvent after ultrasound treatment, HPLC of supernatant (method c); assay type: physicochemical
Procedure: However, the active ingredient loading in solid solutions can be increased greatly by energy input. The maximum active ingredient loading achievable in a given matrix of a copolymer can be predicted with the test system of the invention by determining the solubility of the biologically active substance in accordance with one of the aforementioned methods a) or b), the equilibration being carried out by heating to a temperature of, for example, 140° C., in particular from 110 to 140° C., or by sonication.
as §1
The maximum solubility was determined by mixing 60 mg of lopinavir with 140 mg of the test solvent and treating with ultrasound at room temperature for 30 min. The solvent was then centrifuged at 10 000 rpm for 10 min. A sample of the clear supernatant was investigated by HPLC. […] The remaining amount of the sample was stored at room temperature for 4 weeks. Then a further sample of the supernatant was taken and investigated by HPLC. A concentration of 28.87% by weight was found.

Cc1cccc(C)c1OCC(=O)N[C@@H](Cc1ccccc1)[C@@H](O)C[C@H](Cc1ccccc1)NC(=O)[C@H](C(C)C)N1CCCNC1=O [Lopinavir]
solubility ([1]; 150 mg lopinavir + 350 mg test solvent 6:4, stirred at room temperature 24 hours, HPLC of clear supernatant): 24.9 % by weight
influence of Cremophor RH 40 on thermodynamic saturation solubility ([1]; 5% by weight Cremophor RH 40 in test solvent versus none): reduces the thermodynamic saturation solubility
solubility ([1]; HPLC of supernatant, test solvent containing 5% by weight Cremophor RH 40): 22.8%
lopinavir found in the clear supernatant ([1]; HPLC, lopinavir/ritonavir premix 4:1 by weight, test solvent 6:4): 21.3 % by weight
thermodynamic saturation solubility, HPLC method ([1]; lopinavir/ritonavir premix 4:1, test solvent containing 10% by weight Cremophor RH 40): 21.7%
influence of ritonavir on thermodynamic saturation solubility ([1]; presence of ritonavir (premix 4:1) versus lopinavir alone): reduces the thermodynamic saturation solubility
maximum solubility ([2]; 60 mg lopinavir + 140 mg test solvent, ultrasound at room temperature 30 min, HPLC of supernatant): 39.72 % by weight
concentration in supernatant after storage ([2]; after ultrasound treatment, sample stored at room temperature for 4 weeks, HPLC): 28.87 % by weight
